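The concentration for 50% growth inhibition is given as GI50. At the TGI there is no net growth.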
Legend:
Test in all cases: DTP human tumour cell line panel, 384-well format; in the data active = GI50 below about 0.43 µM; inactive = the rest
UACC-62 melanoma = test system: UACC-62 melanoma
SF-268 CNS = test system: SF-268 CNS
COLO 205 colon = test system: COLO 205 colon
SF-539 CNS = test system: SF-539 CNS
HOP-92 NSCLC = test system: HOP-92 NSCLC
RPMI-8226 leukemia = test system: RPMI-8226 leukemia
NCI/ADR-RES ovarian = test system: NCI/ADR-RES ovarian
SK-MEL-28 melanoma = test system: SK-MEL-28 melanoma
NCI-H226 lung = test system: NCI-H226 lung
OVCAR-8 ovarian = test system: OVCAR-8 ovarian
SR leukemia = test system: SR leukemia
BT-549 breast = test system: BT-549 breast
EKVX NSCLC = test system: EKVX NSCLC
DU-145 prostate = test system: DU-145 prostate
SN12C renal = test system: SN12C renal
OVCAR-4 ovarian = test system: OVCAR-4 ovarian
OVCAR-3 ovarian = test system: OVCAR-3 ovarian
UACC-257 melanoma = test system: UACC-257 melanoma
MDA-MB-435 melanoma = test system: MDA-MB-435 melanoma
LOX IMVI melanoma = test system: LOX IMVI melanoma
HOP-62 NSCLC = test system: HOP-62 NSCLC
MCF7 breast = test system: MCF7 breast
T-47D breast = test system: T-47D breast
MOLT-4 leukemia = test system: MOLT-4 leukemia
ACHN renal = test system: ACHN renal
HL-60(TB) leukemia = test system: HL-60(TB) leukemia
HCT-116 colon = test system: HCT-116 colon
HCT-15 colon = test system: HCT-15 colon
OVCAR-5 ovarian = test system: OVCAR-5 ovarian
A549 NSCLC = test system: A549 NSCLC
SNB-19 CNS = test system: SNB-19 CNS
PC-3 prostate = test system: PC-3 prostate
A498 renal = test system: A498 renal
SNB-75 CNS = test system: SNB-75 CNS
SK-OV-3 ovarian = test system: SK-OV-3 ovarian
U251 glioblastoma = test system: U251 glioblastoma
HCC-2998 colon = test system: HCC-2998 colon
IGROV1 ovarian = test system: IGROV1 ovarian
SF-295 CNS = test system: SF-295 CNS
RXF 393 renal = test system: RXF 393 renal
SK-MEL-5 melanoma = test system: SK-MEL-5 melanoma
KM12 colon = test system: KM12 colon
MALME-3M melanoma = test system: MALME-3M melanoma
HT29 colon = test system: HT29 colon
NCI-H322M lung = test system: NCI-H322M lung
NCI-H522 lung = test system: NCI-H522 lung
MDA-MB-468 breast = test system: MDA-MB-468 breast
M14 melanoma = test system: M14 melanoma
NCI-H23 lung = test system: NCI-H23 lung
TK-10 renal = test system: TK-10 renal
MDA-MB-231 breast = test system: MDA-MB-231 breast
NCI-H460 NSCLC = test system: NCI-H460 NSCLC
CAKI-1 renal = test system: CAKI-1 renal
HS 578T breast = test system: HS 578T breast

COc1ccc2c(OCc3nnc4ccc(-c5ccccc5)nn34)ccnc2c1
94.6 µM: TGI (OVCAR-3 ovarian)
inactive: GI50 (UACC-62 melanoma) > 100 µM | GI50 (SF-268 CNS) > 100 µM | GI50 (COLO 205 colon) > 100 µM | GI50 (SF-539 CNS) > 100 µM | GI50 (HOP-92 NSCLC) > 100 µM | GI50 (RPMI-8226 leukemia) > 100 µM | GI50 (NCI/ADR-RES ovarian) > 100 µM | GI50 (SK-MEL-28 melanoma) > 100 µM | GI50 (NCI-H226 lung) > 100 µM | GI50 (OVCAR-8 ovarian) > 100 µM | GI50 (SR leukemia) > 100 µM | GI50 (BT-549 breast) > 100 µM | GI50 (EKVX NSCLC) > 100 µM | GI50 (DU-145 prostate) > 100 µM | GI50 (SN12C renal) 63 µM | GI50 (OVCAR-4 ovarian) 28.9 µM | GI50 (OVCAR-3 ovarian) 29.8 µM | GI50 (UACC-257 melanoma) > 100 µM | GI50 (MDA-MB-435 melanoma) > 100 µM | GI50 (LOX IMVI melanoma) > 100 µM | GI50 (HOP-62 NSCLC) 60.5 µM | GI50 (MCF7 breast) > 100 µM | GI50 (T-47D breast) > 100 µM | GI50 (MOLT-4 leukemia) > 100 µM | GI50 (ACHN renal) 42.2 µM | GI50 (HL-60(TB) leukemia) > 100 µM | GI50 (HCT-116 colon) > 100 µM | GI50 (HCT-15 colon) > 100 µM | GI50 (OVCAR-5 ovarian) > 100 µM | GI50 (A549 NSCLC) > 100 µM | GI50 (SNB-19 CNS) 50.1 µM | GI50 (PC-3 prostate) > 100 µM | GI50 (A498 renal) > 100 µM | GI50 (SNB-75 CNS) > 100 µM | GI50 (SK-OV-3 ovarian) > 100 µM | GI50 (U251 glioblastoma) > 100 µM | GI50 (HCC-2998 colon) > 100 µM | GI50 (IGROV1 ovarian) > 100 µM | GI50 (SF-295 CNS) > 100 µM | GI50 (RXF 393 renal) > 100 µM | GI50 (SK-MEL-5 melanoma) > 100 µM | GI50 (KM12 colon) > 100 µM | GI50 (MALME-3M melanoma) > 100 µM | GI50 (HT29 colon) > 100 µM | GI50 (NCI-H322M lung) > 100 µM | GI50 (NCI-H522 lung) 44.6 µM | GI50 (MDA-MB-468 breast) > 100 µM | GI50 (M14 melanoma) > 100 µM | GI50 (NCI-H23 lung) > 100 µM | GI50 (TK-10 renal) 48.7 µM | GI50 (MDA-MB-231 breast) > 100 µM | GI50 (NCI-H460 NSCLC) 73.8 µM | GI50 (CAKI-1 renal) > 100 µM | GI50 (HS 578T breast) > 100 µM
> 100 µM: TGI (UACC-62 melanoma) | TGI (SF-268 CNS) | TGI (COLO 205 colon) | TGI (SF-539 CNS) | TGI (HOP-92 NSCLC) | TGI (RPMI-8226 leukemia) | TGI (NCI/ADR-RES ovarian) | TGI (SK-MEL-28 melanoma) | TGI (NCI-H226 lung) | TGI (OVCAR-8 ovarian) | TGI (SR leukemia) | TGI (BT-549 breast) | TGI (EKVX NSCLC) | TGI (DU-145 prostate) | TGI (SN12C renal) | TGI (OVCAR-4 ovarian) | TGI (UACC-257 melanoma) | TGI (MDA-MB-435 melanoma) | TGI (LOX IMVI melanoma) | TGI (HOP-62 NSCLC) | TGI (MCF7 breast) | TGI (T-47D breast) | TGI (MOLT-4 leukemia) | TGI (ACHN renal) | TGI (HL-60(TB) leukemia) | TGI (HCT-116 colon) | TGI (HCT-15 colon) | TGI (OVCAR-5 ovarian) | TGI (A549 NSCLC) | TGI (SNB-19 CNS) | TGI (PC-3 prostate) | TGI (A498 renal) | TGI (SNB-75 CNS) | TGI (SK-OV-3 ovarian) | TGI (U251 glioblastoma) | TGI (HCC-2998 colon) | TGI (IGROV1 ovarian) | TGI (SF-295 CNS) | TGI (RXF 393 renal) | TGI (SK-MEL-5 melanoma) | TGI (KM12 colon) | TGI (MALME-3M melanoma) | TGI (HT29 colon) | TGI (NCI-H322M lung) | TGI (NCI-H522 lung) | TGI (MDA-MB-468 breast) | TGI (M14 melanoma) | TGI (NCI-H23 lung) | TGI (TK-10 renal) | TGI (MDA-MB-231 breast) | TGI (NCI-H460 NSCLC) | TGI (CAKI-1 renal) | TGI (HS 578T breast)

Cn1ncc(Cl)c1-c1cc(C(=O)N[C@H](CN)Cc2ccc(F)c(F)c2)oc1Cl
5.55 µM: TGI (T-47D breast)
11 µM: TGI (EKVX NSCLC)
0.782 µM: TGI (A498 renal)
10.5 µM: TGI (HCT-116 colon)
15.6 µM: TGI (OVCAR-8 ovarian)
2.24 µM: TGI (UACC-257 melanoma) | TGI (MALME-3M melanoma)
4.56 µM: TGI (OVCAR-5 ovarian)
2.99 µM: TGI (RPMI-8226 leukemia)
13.4 µM: TGI (HCT-15 colon)
inactive: GI50 (UACC-62 melanoma) 1.06 µM | GI50 (SF-268 CNS) 4.7 µM | GI50 (COLO 205 colon) 0.833 µM | GI50 (HOP-92 NSCLC) 2.36 µM | GI50 (RPMI-8226 leukemia) 1.54 µM | GI50 (NCI/ADR-RES ovarian) 4.1 µM | GI50 (SK-MEL-28 melanoma) 1.14 µM | GI50 (NCI-H226 lung) 2.54 µM | GI50 (OVCAR-8 ovarian) 3.31 µM | GI50 (SR leukemia) 0.517 µM | GI50 (BT-549 breast) 0.586 µM | GI50 (EKVX NSCLC) 2.07 µM | GI50 (DU-145 prostate) 3.72 µM | GI50 (SN12C renal) 1.96 µM | GI50 (OVCAR-4 ovarian) 6.6 µM | GI50 (OVCAR-3 ovarian) 2.17 µM | GI50 (UACC-257 melanoma) 1.05 µM | GI50 (MDA-MB-435 melanoma) 1.82 µM | GI50 (LOX IMVI melanoma) 1.94 µM | GI50 (HOP-62 NSCLC) 3.01 µM | GI50 (ACHN renal) 2.77 µM | GI50 (HL-60(TB) leukemia) 1.26 µM | GI50 (HCT-116 colon) 2.33 µM | GI50 (HCT-15 colon) 0.702 µM | GI50 (OVCAR-5 ovarian) 1.57 µM | GI50 (A549 NSCLC) 2.66 µM | GI50 (SNB-19 CNS) 1.48 µM | GI50 (SK-OV-3 ovarian) 0.431 µM | GI50 (U251 glioblastoma) 1.14 µM | GI50 (HCC-2998 colon) 0.772 µM | GI50 (SF-295 CNS) 0.527 µM | GI50 (SK-MEL-5 melanoma) 1.01 µM | GI50 (MALME-3M melanoma) 1.05 µM | GI50 (HT29 colon) 1.03 µM | GI50 (NCI-H322M lung) 2.34 µM | GI50 (NCI-H522 lung) 2.24 µM | GI50 (M14 melanoma) 1.49 µM | GI50 (NCI-H23 lung) 2.7 µM | GI50 (TK-10 renal) 0.569 µM | GI50 (MDA-MB-231 breast) 7.04 µM | GI50 (CAKI-1 renal) 2.23 µM | GI50 (HS 578T breast) 0.711 µM
active: GI50 (SF-539 CNS) 0.0794 µM | GI50 (MCF7 breast) 0.13 µM | GI50 (T-47D breast) 0.137 µM | GI50 (MOLT-4 leukemia) 0.06 µM | GI50 (PC-3 prostate) 0.128 µM | GI50 (A498 renal) 0.0257 µM | GI50 (SNB-75 CNS) 0.211 µM | GI50 (IGROV1 ovarian) 0.0231 µM | GI50 (RXF 393 renal) 0.386 µM | GI50 (KM12 colon) 0.364 µM | GI50 (MDA-MB-468 breast) 0.0719 µM | GI50 (NCI-H460 NSCLC) 0.0876 µM
2.91 µM: TGI (M14 melanoma)
19.9 µM: TGI (MDA-MB-231 breast)
2.71 µM: TGI (COLO 205 colon)
2.82 µM: TGI (KM12 colon)
6.67 µM: TGI (MDA-MB-435 melanoma)
2.29 µM: TGI (SNB-75 CNS)
11.2 µM: TGI (HOP-92 NSCLC)
8.2 µM: TGI (SK-OV-3 ovarian)
0.347 µM: TGI (MOLT-4 leukemia)
1.79 µM: TGI (MDA-MB-468 breast)
0.178 µM: TGI (IGROV1 ovarian)
2.21 µM: TGI (HCC-2998 colon)
2.16 µM: TGI (BT-549 breast) | TGI (PC-3 prostate)
1.92 µM: TGI (SF-539 CNS)
16.9 µM: TGI (SF-268 CNS)
2.55 µM: TGI (HL-60(TB) leukemia)
2.72 µM: TGI (HS 578T breast)
10.9 µM: TGI (HOP-62 NSCLC)
14.1 µM: TGI (OVCAR-3 ovarian)
16.4 µM: TGI (DU-145 prostate)
1.8 µM: TGI (MCF7 breast)
3.97 µM: TGI (U251 glioblastoma)
12.1 µM: TGI (CAKI-1 renal)
2.9 µM: TGI (TK-10 renal)
1.86 µM: TGI (SR leukemia)
16.3 µM: TGI (NCI/ADR-RES ovarian)
2.18 µM: TGI (RXF 393 renal) | TGI (SK-MEL-5 melanoma) | TGI (NCI-H460 NSCLC)
8.16 µM: TGI (NCI-H226 lung)
11.1 µM: TGI (SN12C renal) | TGI (NCI-H23 lung)
2.3 µM: TGI (SF-295 CNS)
2.31 µM: TGI (UACC-62 melanoma)
3.95 µM: TGI (LOX IMVI melanoma)
7.49 µM: TGI (HT29 colon)
19.1 µM: TGI (OVCAR-4 ovarian)
13.9 µM: TGI (A549 NSCLC) | TGI (NCI-H322M lung)
7.94 µM: TGI (NCI-H522 lung)
14.9 µM: TGI (ACHN renal) | TGI (SNB-19 CNS)
2.45 µM: TGI (SK-MEL-28 melanoma)
